According to US11726079B2, “Lighting systems and methods of using lighting systems for in vitro potency assay for Photofrin” (Concordia Laboratories, Inc., priority 2012, dated 2023):
Several values for one entry are separate records, joined by “and”; a condition that tells them apart may be missing. Identical values can stand only once.

Assays:
[1] = tested on: A549 human lung carcinoma cells; assay: Control for the activity of Photofrin® in the absence of irradiation (+D, −L), viability relative to cell control; type: cell-based
Method: The plate is covered with a black lid and placed in the incubator for four hours to allow absorption of the drug by the cells. The plate is then removed from the incubator, the drug is aspirated, the wells are washed with Dulbecco's phosphate buffered saline (DPBS) and fresh, pre-warmed medium is added to the wells. The columns of wells not to be irradiated are covered with foil strips, the black lid is exchanged for a clear lid, and the plate is then moved to the irradiation template beneath the light beam and irradiated for ten minutes, for a total of 3.3 joules. The plate is returned to the incubator and assessed for viability using XTT after 24 hours. The wells covered with foil strips are important controls for the activity of Photofrin® in the absence of irradiation and the effect of light on the cells in the absence of drug.
The optical absorbance of the wells in column 1 (high drug concentration, no cells) is evaluated for absorption at 450 nm to ensure that the drug is not interfering with the XTT assay. The percent viability of each of the wells in columns 2-9 and 11 is calculated relative to the mean value of column 10 (cell control, no drug, no light). For each dose response obtained, a four parameter logistic (4PL) nonlinear regression analysis is performed of the percent viability versus the log-Photofrin® concentration. The point of inflection of the regression curve (C value) is defined as the EC50 and used in the calculation of relative potency. Curve fitting and calculation of the EC50 is performed with Softmax v5.4.2 (Molecular Devices, Inc.) or Prism v.5.04 (GraphPad, Software Inc.) software. The mean percent viability of columns 9 and 11 is also calculated.
Critical aspects of the system suitability will include the acceptable performance of the assay controls. The expectation is that the viability of cells receiving no drug but with light (−D, +L) and cells receiving a high concentration of drug but no light (+D, −L) should approximate the viability of the cell control not receiving drug or light (CC). The percent viability of all samples is based on the CC, which is calculated set at 1.00 and is not included in the Table.

[2] = tested on: A549 human lung carcinoma cells; assay: Photofrin® dose response of irradiated A549 cells with MTT as the endpoint; type: cell-based
Method: XTT and MTT are two types of formazan dyes that are used to measure mitochondrial function as a surrogate for cell viability. A Photofrin® dose response curve is performed with either XTT or MTT as the endpoint. The results obtained with these two endpoints differ by approximately 15%, but each produces consistent values (see Table 2, below). As the potency of an unknown will be determined with respect to a Reference Lot, the absolute EC50 value is not critical. Given that the use of the MTT dye requires an additional solubilization step, XTT is selected for use in this assay.

A549 cells = assay: Homogeneity of irradiation: every well of an A549 plate treated equally with Photofrin®; type: cell-based, human; settings: Photofrin® at 1.5 μg/mL; wells in the middle of the plate; relative to a second plate of cells without drug; before lengthening the light path from 54 cm to 95.5 cm
Excerpt: The Xenon arc lamp produces a bright, broad wavelength irradiance beam that when collimated still retains a bright center. This lack of homogeneity in the intensity of the light beam has to be minimized in order to achieve even irradiation over the area of the 96-well plate. For this purpose, two plano-convex lenses are introduced into the light path to approximate a Kohler illumination (FIG. 1). After an initial dosing ranging study of Photofrin® (data not shown), each well of an assay plate containing A549 cells is treated equally with Photofrin® at 1.5 μg/mL to assess homogeneity of the irradiation. For this experiment, the percent viability is calculated relative to a second plate of cells without drug. […] To address the inhomogeneity in irradiance, the distance from the final bandpass filter to the sample is raised approximately 2-fold from 54 cm to 95.5 cm while the first surface of the plano-convex lenses is maintained at 13.6 cm from the 650 nm cut-off filter. By increasing the length of the light path, the center zone of irradiance is broadened to cover the area of the entire plate (FIG. 13). As the light path is lengthened, the overall irradiance is decreased, necessitating the use of a higher Photofrin® concentration.

EC50-MTT ([2]; experiment PIN-009, in µg/mL): 8.28 and 8.11
EC50-MTT, Mean ([2]; experiment PIN-009, mean): 8.2 µg/mL
Substance: porfimer sodium [Photofrin®]
+D, −L/CC ([1]; 70 μg/mL drug, no irradiation, ratio to cell control (no drug, no irradiation), Plate 1 (left to right dilution; controls in columns 9-11)): 0.994
+D, −L/CC ([1]; 70 μg/mL drug, no irradiation, ratio to cell control, Plate 2 (placement Test, Standard; controls in columns 9-11)): 0.926
+D, −L/CC ([1]; 70 μg/mL drug, no irradiation, ratio to cell control, Plate 3 (right to left dilution; controls in columns 9-11)): 0.981
+D, −L/CC ([1]; 70 μg/mL drug, no irradiation, ratio to cell control, Plate 4 (left to right dilution; controls in columns 9-11)): 0.928
+D, −L/CC ([1]; 70 μg/mL drug, no irradiation, ratio to cell control, Plate 5 (left to right dilution; controls in columns 2-4)): 1.00
+D, −L/CC, Mean ([1]; 70 μg/mL drug, no irradiation, ratio to cell control, mean across Plates 1-5 of positional analysis): 0.967
+D, −L ([1]; high concentration of drug, no light, viability based on cell control set at 1.00, experiments of Table 1, black plates): 1.05 and 0.893 and 1.09
+D, −L ([1]; high concentration of drug, no light, viability based on cell control set at 1.00, experiments of Table 1, clear plates (significant cell killing, excluded from the analysis)): 0.012 and 0.019 and 0.024
+D, −L ([1]; high concentration of drug, no light, viability based on cell control set at 1.00, experiments of Table 2, black plates): 1.06 and 0.947 and 0.986
+D, −L ([1]; high concentration of drug, no light, viability based on cell control set at 1.00, experiments of Table 4, black plates): 0.994 and 0.926 and 0.981 and 0.928 and 1.00
+D, −L ([1]; high concentration of drug, no light, viability based on cell control set at 1.00, experiments of Table 5, black plates): 0.999 and 1.02 and 1.00 and 1.29 and 0.973
+D, −L ([1]; high concentration of drug, no light, viability based on cell control set at 1.00, experiments of Table 6, black plates): 0.990 and 0.981 and 0.977
+D, −L ([1]; high concentration of drug, no light, viability based on cell control set at 1.00, experiments of Table 7, black plates): 0.973 and 1.00
+D, −L ([1]; high concentration of drug, no light, viability based on cell control set at 1.00, experiments of Table 8, black plates): 1.02 and 0.992 and 0.995 and 0.959 and 0.985
+D, −L ([1]; high concentration of drug, no light, viability based on cell control set at 1.00, experiments of Table 9, black plates): 1.01 and 0.898 and 0.959
+D, −L ([1]; high concentration of drug, no light, viability based on cell control set at 1.00, experiments of Table 10, black plates): 1.09 and 1.08 and 0.995
+D, −L ([1]; high concentration of drug, no light, viability based on cell control set at 1.00, experiments of Table 11, black plates): 0.980 and 0.973 and 1.02 and 0.956
+D, −L ([1]; high concentration of drug, no light, viability based on cell control set at 1.00, experiments of Table 12, black plates): 0.990 and 0.906 and 1.03 and 1.02 and 1.00
+D, −L, Mean ([1]; high concentration of drug, no light, viability based on cell control set at 1.00, mean of all experiments, clear plate values excluded): 1.00
viability (A549 cells): 103%
